This test has as its target 5-hydroxytryptamine receptor 2B (Homo sapiens, UniProt P41595).

pKi: −log10 of the molar value. Where “and” joins values, the source holds several entries; their conditions need not be identical. Identical values can stand only once.

5-hydroxytryptamine receptor 2B, sequence (P41595 whole entry): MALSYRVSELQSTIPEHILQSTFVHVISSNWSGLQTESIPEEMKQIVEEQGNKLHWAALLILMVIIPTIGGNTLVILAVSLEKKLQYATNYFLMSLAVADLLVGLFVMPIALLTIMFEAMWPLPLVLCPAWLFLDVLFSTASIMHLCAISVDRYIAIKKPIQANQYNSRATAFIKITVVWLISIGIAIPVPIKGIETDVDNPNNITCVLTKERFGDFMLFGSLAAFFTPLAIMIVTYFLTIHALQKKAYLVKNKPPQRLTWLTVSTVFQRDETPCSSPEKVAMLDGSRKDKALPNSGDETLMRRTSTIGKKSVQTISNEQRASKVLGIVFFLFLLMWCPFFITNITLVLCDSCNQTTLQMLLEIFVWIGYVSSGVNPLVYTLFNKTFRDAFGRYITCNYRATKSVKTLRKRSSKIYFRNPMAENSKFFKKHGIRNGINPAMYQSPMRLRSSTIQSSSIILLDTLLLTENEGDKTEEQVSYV

As a reminder, the pKi is the negative decadic logarithm of the Ki, by convention in mol/L. For `CC(O)C(C)OC(=O)C1CC2c3cccc4c3c(cn4C(C)C)CC2N(C)C1` (stereo not drawn) [CAS_60634-51-7], the pKi is 8.82 and 9.13.

Regarding `CN(C)CCC(c1ccc(Cl)cc1)c1ccccn1` (stereo not drawn) [clorfeniramina], the pKi was 5.17 and 5.38.

For the molecule `O=C(CCCN1CCC2(CC1)C(=O)NCN2c1ccccc1)c1ccc(F)cc1` [8-[4-(4-fluorophenyl)-4-oxidanylidene-butyl]-1-phenyl-1,3,8-triazaspiro[4.5]decan-4-one], the negative-log Ki (pKi) is 6.23 and 6.50.

Take `CN1C[C@@H](NS(=O)(=O)N(C)C)C[C@@H]2c3cccc4c3c(cn4C)C[C@H]21` [MESULERGINE]: the pKi is 8.48 and 8.72.

For `O=C1NCN(c2ccccc2)C12CCN(CC1COc3ccccc3O1)CC2` (stereo not drawn) [8-(2,3-Dihydro-benzo[1,4]dioxin-2-ylmethyl)-1-phenyl-1,3,8-triaza-spiro[4.5]decan-4-one], the negative logarithm of the Ki (pKi) is 6.32 and 6.76.

As to `CCN(CC)C(=O)[C@@H]1C=C2c3cccc4[nH]c(Br)c(c34)C[C@H]2N(C)C1` [LSD,2-Bromo], the negative logarithm of the Ki (pKi) is 8.09 and 8.13.

As to `Cc1nc2sccn2c(=O)c1CCN1CCC(=C(c2ccc(F)cc2)c2ccc(F)cc2)CC1`, the pKi was 8.79 and 9.40.

The molecule `c1ccc2c(N3CCNCC3)cccc2c1` showed a pKi of 9.05.

The record behind these values is BindingDB's records for doi:10.1007/pl00005133 (Eli Lilly, 1998).
